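Method: 48-hour compound exposure of cells in 96-well plates, five concentrations, linear interpolation of endpoints. Abbreviation: GI50, concentration required for 50% inhibition of growth.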 The source made the active and inactive calls. Rule as the data show it: active = GI50 up to about 1.1 µM and inactive = higher.
Assays:
Experiment in all cases: growth of human tumour cells (NCI), 48 h
HCT-116 = test system: HCT-116
OVCAR-5 = test system: OVCAR-5
SR = test system: SR
OVCAR-3 = test system: OVCAR-3
SNB-75 = test system: SNB-75
Malme-3M = test system: Malme-3M
NCI-H226 = test system: NCI-H226
DU-145 = test system: DU-145
IGROV-1 = test system: IGROV-1
SK-MEL-5 = test system: SK-MEL-5
UACC-62 = test system: UACC-62
TK-10 = test system: TK-10
HOP-62 = test system: HOP-62
SK-MEL-2 = test system: SK-MEL-2
HT-29 = test system: HT-29
UO-31 = test system: UO-31
COLO 205 = test system: COLO 205
MOLT-4 = test system: MOLT-4
SF-268 = test system: SF-268

Measured: GI50

O=c1cc(N2CCOCC2)[nH]c(=O)n1-c1cccc(C(F)(F)F)c1
inactive: HCT-116 > 100 µM | OVCAR-5 > 100 µM | SR > 100 µM | OVCAR-3 > 100 µM | SNB-75 > 100 µM | Malme-3M > 100 µM | NCI-H226 > 100 µM | DU-145 > 100 µM | IGROV-1 > 100 µM | SK-MEL-5 > 100 µM | UACC-62 > 100 µM | TK-10 > 100 µM | HOP-62 > 100 µM | SK-MEL-2 43.3 µM | HT-29 > 100 µM | UO-31 > 100 µM | COLO 205 > 100 µM | MOLT-4 > 100 µM | SF-268 > 100 µM

COc1ccc(-n2cnc3c(NCC(=O)O)ncnc32)cc1
inactive: HCT-116 > 100 µM | OVCAR-5 > 100 µM | SR > 100 µM | OVCAR-3 > 100 µM | SNB-75 > 100 µM | Malme-3M 54.1 µM | NCI-H226 > 100 µM | DU-145 > 100 µM | IGROV-1 > 100 µM | SK-MEL-5 > 100 µM | UACC-62 > 100 µM | TK-10 > 100 µM | HOP-62 > 100 µM | SK-MEL-2 > 100 µM | HT-29 > 100 µM | UO-31 > 100 µM | COLO 205 > 100 µM | MOLT-4 > 100 µM | SF-268 > 100 µM

c1ccc2nc3c(nc2c1)sc1ccccc13
inactive: HCT-116 26.7 µM | OVCAR-5 60.1 µM | SR 41.2 µM | OVCAR-3 29.4 µM | SNB-75 22.2 µM | Malme-3M 46.9 µM | NCI-H226 18.6 µM | DU-145 50 µM | IGROV-1 15.6 µM | SK-MEL-5 30.9 µM | UACC-62 14.9 µM | TK-10 19.3 µM | HOP-62 30.7 µM | SK-MEL-2 67.5 µM | HT-29 39.4 µM | UO-31 23.7 µM | COLO 205 58.3 µM | MOLT-4 21.8 µM | SF-268 20.7 µM

CCOC(=O)CCC1(CCC(=O)OCC)CCCCCCCCC(CCC(=O)OCC)(CCC(=O)OCC)C(=O)C1=O
inactive: HCT-116 > 100 µM | OVCAR-5 > 100 µM | SR > 100 µM | OVCAR-3 > 100 µM | SNB-75 82.8 µM | Malme-3M > 100 µM | NCI-H226 > 100 µM | DU-145 > 100 µM | IGROV-1 > 100 µM | SK-MEL-5 > 100 µM | UACC-62 > 100 µM | TK-10 > 100 µM | HOP-62 > 100 µM | SK-MEL-2 > 100 µM | HT-29 > 100 µM | COLO 205 > 100 µM | SF-268 > 100 µM

Source: ChEMBL document CHEMBL1201862, “PubChem BioAssay data set” (2004)
